Data taken from article PMC2409900 (British Journal of Cancer, 2004).
Where “and” joins values, the source holds several entries; their conditions need not be identical. Equal entries are not always repeated.

Key:
[1] = test system: STS; set-up: method as in Ireson et al, 2003; conditions: ref Ireson et al, 2003; cited from earlier work
[2] = Stability of 667 COUMATE in vehicle; assay type: physicochemical; conditions: HPLC
[3] = Pharmacokinetic study: plasma levels after single i.v. or p.o. dose; conditions: for half-life: t1/2β
Description: Female Wistar (155–165 g) rats were purchased from Charles River UK Ltd (Margate, Kent, UK) and housed in a dedicated animal facility. Rats received RM1 rodent maintenance diet (SDS, Kent, UK), water ad libitum and were maintained in positive pressure isolators under a 12 h light–dark cycle. These experiments were approved by the Imperial College Ethical Review Committee and met the standards required by the UKCCCR guidelines ([Workman et al, 1998]). […] Three rats were used for each time point. Rats were subjected to terminal anaesthesia (halothane) and blood was removed by cardiac puncture at 2.5, 5, 15, 30 and 45 min and 1, 3, 8, 16 and 24 h after i.v. administration. […] Plasma and RBCs were prepared from whole blood by centrifugation (2800 g, 4°C, 15 min). […] 7-Hydroxycoumarin (3 μg ml^−1) was used as an internal standard. The organic phase was decanted to a fresh tube and evaporated to dryness under a stream of air at room temperature. […] Briefly, RBCs were mixed with blank plasma (1 : 1, v v^−1) and mixed by inversion in order to reconstitute ‘whole blood’. 7-Hydroxycoumarin (3 μg ml^−1) was added to the whole blood (500 μl). […] Samples were thawed, vortexed for a further 5 min, centrifuged (15 000 g, 15 min) and the supernatant was removed and filtered ([…], acrodisc CR PTFE). The diethyl ether was removed under a stream of air. […] The residues were stored at −20°C in preparation for HPLC analysis.
Pharmacokinetic parameters were calculated using WinNonlin software (Pharsight Corporation, Mountview, CA, USA). The area under the curve (AUC) was calculated using the linear trapezoidal method with extrapolation of the terminal phase to infinity. Other parameters calculated were as follows: elimination rate constant (β); total body clearance (Cl)=dose/AUC; volume of distribution (Vd)=Cl/β; elimination half-life (t1/2β)=0.693/β; bioavailability (%F)=(AUCoral/AUCi.v.) × 100.

[4] = test system: rat RBCs; assay: Ex vivo uptake of 667 COUMATE / 667 COUMARIN by RBCs in whole blood; assay type: in vitro ADME
Description: (§1) Whole blood was removed from female Wistar rats, pooled, centrifuged (2800 g, 4°C, 15 min) and separated into RBCs and plasma. […] 667 COUMATE was also incubated with plasma only. Duplicate samples were maintained at 37°C for 0.5, 1, 3 and 24 h on rollers. Whole blood was acidified by addition of 1 M (pH 3) citrate buffer (9 : 1, v v^−1). […] Plasma was separated from other blood constituents by centrifugation (2800 g, 4°C, 15 min) and the radioactivity was counted.
(§2) The coefficients of variation (interday and intraday) were <10%.

[5] = test system: E1S-stimulated nitrosomethylurea-induced mammary tumours; conditions: cited from earlier work
[6] = In vivo uptake into RBCs after single p.o. or i.v. dose; conditions: female, Wistar, 10 mg kg^−1, rat
Description: Three rats were used for each time point.
as §2

[7] = test system: rat liver STS; conditions: cited from earlier work
[8] = Ex vivo stability in plasma and whole blood (667 COUMATE/667 COUMARIN ratio); assay type: in vitro ADME, rat
Description: as §1, with “Duplicate samples were maintained at 37°C for 0.5, 1, 3 and 24 h on rollers.” left out
as §2

[9] = set-up: method as in Ireson et al, 2003; conditions: by 4 h; ref Ireson et al, 2003; cited from earlier work
[10] = female, Wistar, rat, in vivo, iv, 10 mg/kg
[11] = female, Wistar, rat, in vivo, po, 10 mg/kg

## O=c1oc2cc(O)ccc2c2c1CCCCC2 [667 COUMARIN, 3-Hydroxy-6-oxo-8,9,10,11-tetrahydro-7H-cyclohepta-[c] [1] benzopyran]
[1]
  STS inhibitory activity: devoid of any STS inhibitory activity
[2]; 667 COUMATE in vehicle on ice for up to 6 h
  level of degradation product 667 COUMARIN in vehicle: below the limit of detection
[3]; rat plasma after i.v. or p.o. 667 COUMATE
  formation as metabolite of 667 COUMATE in vivo: only a minor metabolic product
[4]; whole rat blood preincubated with acetazolamide (100 μM)
  effect of acetazolamide preincubation on uptake into RBCs: did not affect this uptake
[4]; whole rat blood, 667 COUMARIN 10 μg ml^−1, no acetazolamide
  uptake into RBCs: 50%

## NS(=O)(=O)Oc1ccc2c3c(c(=O)oc2c1)CCCCC3 [667 COUMATE, 6-oxo-8,9,10,11-tetrahydro-7H-cyclohepta-[c] [1] benzopyran-3-O-sulphamate]
[5]; nitrosomethylurea-induced mammary tumours in rats, ref Purohit et al, 2000
  inhibition of STS activity in mammary tumours: almost completely inhibit STS activity
[5]; nitrosomethylurea-induced rat mammary model, ref Purohit et al, 2000, 2001
  growth of E1S-stimulated tumours: causes a reduction in the growth
[6]; iv, 30 min after i.v. administration
  concentration at 30 min: 19 µg/mL
[6]; po, 30 min after p.o. administration
  concentration at 30 min: 12 µg/mL
[2]; THF : PEG-400 : water 1:6:3, on ice for up to 6 h
  stability in vehicle: stable
[7]; 10 mg kg^−1, ref Purohit et al, 2000, 2001
  inhibition of rat liver STS: 93%
[7]; rat, hepatic STS, ref Purohit et al, 2001
  duration of STS inhibition in vivo after a single dose: up to 24 h
[3]; 10 mg kg^−1 bolus i.v., rat, Cl=dose/AUC
  Cl: 53.5 ± 2.6 mL/h
[3]; 10 mg kg^−1 p.o., rat plasma
  t1/2β: 1.97 ± 0.3 h
[3]; 10 mg kg^−1 p.o., rat, Cl=dose/AUC
  Cl: 54 mL/h and 54.2 ± 2.4 mL/h
[3]; 10 mg kg^−1 p.o., rat, Vd=Cl/β
  Vd: 0.1532 ± 0.0187 L/kg
[3]; female, Wistar, rat, in vivo, 10 mg kg^−1
  concentration at 8 h: > 0.1 µg/mL
[3]; female, Wistar, rat, in vivo, 10 mg kg^−1, %F (bioavailability), 10 mg kg^−1 p.o. vs i.v., rat, (AUCoral/AUCi.v.) × 100
  bioavailability: 95%
[3]; [10]
  AUC: 35.8 ± 1.3 µg·h/mL
  Cmax: 22.8 ± 0.6 µg/mL
  Vd: 0.0939 ± 0.0029 L/kg
  k el: 0.000167 s⁻¹
[3]; female, Wistar, rat, in vivo, iv, 10 mg/kg, Cl, 10 mg kg^−1 bolus i.v., Cl=dose/AUC
  clearance: 0.883 mL/min
[3]; female, Wistar, rat, in vivo, iv, 10 mg/kg, 10 mg kg^−1 bolus i.v., rat plasma
  half-life: 1.2 ± 0.1 h
[3]; [11]
  AUC: 34.4 ± 1.1 µg·h/mL
  Cmax: 11.9 ± 0.4 µg/mL
  k el: 8.33e-05 s⁻¹
[3]; female, Wistar, rat, in vivo, po, 10 mg/kg, 10 mg kg^−1 p.o., rat plasma
  half-life: 2 h
[3]; oral dosing 10 mg kg^−1, rat
  time at which maximum level in plasma was attained: 30 min
[3]; single 10 mg kg^−1 i.v. or p.o. dose, rat
  time for which 667 COUMATE could be detected in plasma: up to 8 h
[8]; plasma, 3 h incubation
  parent compound remaining in plasma: below the limit of detection
[8]; whole blood, after 48 h incubation
  parent compound remaining in whole blood: could still be detected
[4]; 24 h after addition to whole rat blood
  percentage of agent retained by the RBCs: 48%
[4]; added to rat whole blood ex vivo
  percentage of agent taken up by RBCs (two independent analytical methods): more than 70%
[4]; whole rat blood preincubated 30 min with acetazolamide (100 μM)
  uptake into RBCs after preincubation with acetazolamide: 50%
[4]; whole rat blood, 30 min incubation, 37°C, 10 μg ml^−1, HPLC
  percentage of agent associated with the RBC fraction: more than 80%
[9]
  percentage of agent removed on incubation with plasma: 80%
